{
  "source": "paper PMC5405074",
  "about": "“Receptor-Mediated Melanoma Targeting with Radiolabeled α-Melanocyte-Stimulating Hormone: Relevance of the Net Charge of the Ligand” (Frontiers in Endocrinology, 2017)",
  "key": {"MC1R (HBL cells)": {"target": "T1, MC1R (HBL cells) (Homo sapiens, UniProt Q01726)", "T1 construct": "endogenous in cells; host or cells: human HBL melanoma cell line", "T1 sequence (Q01726 whole entry)": "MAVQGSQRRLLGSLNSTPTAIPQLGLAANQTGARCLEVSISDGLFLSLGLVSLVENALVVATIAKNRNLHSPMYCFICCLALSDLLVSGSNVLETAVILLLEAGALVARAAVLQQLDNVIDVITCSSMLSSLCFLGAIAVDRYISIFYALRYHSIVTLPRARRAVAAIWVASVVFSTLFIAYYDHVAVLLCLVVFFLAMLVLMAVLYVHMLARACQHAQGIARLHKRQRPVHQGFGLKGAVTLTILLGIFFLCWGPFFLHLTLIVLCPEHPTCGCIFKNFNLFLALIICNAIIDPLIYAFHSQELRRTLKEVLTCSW", "experiment": "Competition binding assay with [^125I]-NDP-MSH, human HBL melanoma cells", "settings": "HBL cells", "description": "(§1) Triplicates of 100-µL volumes of B16-F1 or HBL cell suspensions adjusted to 4 × 10^6/mL were incubated in 96-well U-bottom microplates (Falcon 3077). The binding medium consisted of MEM with Earle’s salts, 0.2% BSA, and 0.3 mM 1,10-phenanthroline. This binding medium was called mouse binding medium (MBM). Triplicates of competitor peptide solution (50 µL) yielding final concentrations ranging from 1 × 10^−6 to 1 × 10^−12 M were added. [^125I]NDP-MSH (50,000 cpm) in 50 µL was finally added to each well. The plates were incubated at 15°C for 3 h for B16-F1 cells and at 37°C for 2 h for HBL cells. The incubation was stopped by covering the plates with ice for 10 min. A cell harvester was used to collect cell-bound radioactivity on filters (Packard Unifilter-96 GF/B). The collected radioactivity was counted on a TopCount scintillation counter (Packard) after addition of 50 µL Microscint-20 scintillation cocktail (Perkin Elmer). The IC50 values were calculated with the Prism 6 software (GraphPad Software Inc., San Diego CA, USA).\n(§2) The binding affinity of the peptides to MC1R was assessed by competition binding assays using [^125I]-NDP-MSH as radioligand and both murine B16-F1 and human HBL cells."}, "MC1R (B16-F1 cells)": {"target": "T2, MC1R (B16-F1 cells) (Mus musculus, UniProt Q01727)", "T2 construct": "endogenous in cells; host or cells: mouse B16-F1 melanoma cells", "T2 sequence (Q01727 whole entry)": "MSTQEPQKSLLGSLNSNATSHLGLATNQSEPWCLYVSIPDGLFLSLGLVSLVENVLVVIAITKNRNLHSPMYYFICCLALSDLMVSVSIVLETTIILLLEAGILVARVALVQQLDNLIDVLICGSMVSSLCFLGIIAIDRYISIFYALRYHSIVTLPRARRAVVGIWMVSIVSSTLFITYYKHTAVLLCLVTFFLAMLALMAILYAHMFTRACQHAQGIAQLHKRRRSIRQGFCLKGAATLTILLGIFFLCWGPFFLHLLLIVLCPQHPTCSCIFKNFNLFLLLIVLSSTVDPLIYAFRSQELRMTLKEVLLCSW", "experiment": "Competition binding assay with [^125I]-NDP-MSH, mouse B16-F1 melanoma cells", "settings": "B16-F1 cells", "description": "as §1, §2"}, "[1]": {"experiment": "Biodistribution of ^111In-labeled peptides in B16-F1 melanoma-bearing mice", "assay_type": "in vivo, mouse (B6D2F1)", "settings": "female, iv, total radioactivity, ^111In-labeled peptide, 185 kBq i.v., mean ± SEM of three experiments, n = 5 animals each", "method_in_brief": "(§3)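 B16-F1 cells (about 5 × 10^5) grown s.c. in female B6D2F1 mice; 7 days later 185 kBq ^111In-labeled peptide injected i.v. Tissues collected at 4, 24 and 48 h and γ-counted, uptake given as %ID/g (mean ± SEM); non-specific uptake from co-injection of 50 µg α-MSH. Urine metabolites analysed by RP-HPLC/γ-detection.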"}, "[2]": {"tested_on": "B16-F1 tumor-bearing mice", "experiment": "Biodistribution of ^111In-labeled peptides in B16-F1 melanoma-bearing mice", "assay_type": "in vivo, mouse (B6D2F1)", "settings": "in vivo", "method_in_brief": "as §3"}, "B16-F1 cells": {"tested_on": "B16-F1 cells", "experiment": "Internalization by cultured B16-F1 cells", "assay_type": "cell-based, mouse", "settings": "37°C, 0.5, 2 and 3.5 h, 74 kBq radioligand", "description": "B16-F1 cells were seeded in six-well plates and incubated overnight in MEM at 37°C. For the internalization experiments, MEM was replaced by 1 mL MBM (see above) as internalization buffer. After a 1-h incubation at 37°C, 74 kBq of radioligand (^111In-labeled peptides) was added, and the plates were incubated for different time periods. Non-specific internalization was determined by addition of 50 µL of a 1 µM α-MSH solution to the incubation mixture. After the desired incubation times, the cells were extensively washed with MBM kept at 37°C to remove excess radioligand. Incubation in 2 mL ice-cold acid buffer (acetate-buffered Hank’s balanced salt solution, pH 5) for 10 min allowed dissociation of surface-bound ligand. After collection of the acid buffer fraction, the cells were rinsed once with cold MBM, and the washings were pooled with the acid buffer fraction. The cells were washed again with MBM kept at 37°C, lysed in a 1% Triton X-100 solution, and finally transferred to tubes for quantification. The radioactivity of all collected fractions was measured in a γ-counter. A counting plate underwent the same treatment as the plate incubated for the longest time, but its cells were detached with 0.02% EDTA in PBS instead of being lysed with the Triton X-100 solution. Cells from three wells were collected, counted, and thus allowed for normalization of the results obtained. Results were expressed as percent of the added dose per million cells.\nFigure 3 Determination of internalization of [^111In] DOTA-NAP-D-Asp-D-Asp (A) and [^111In]DOTA-Phospho-MSH2-9 (B) by cultured B16-F1 cells exposed to the peptides at 37°C for 0.5, 2, and 3.5 h. Surface-bound radioligand was released by an acid buffer wash, and internalized radioligand was determined by lysing cells with detergent. Results are expressed in percent of the added dose per million cells."}, "[3]": {"settings": "B6D2F1 (C57BL/6 × DBA/2F1 hybrids), mouse, blood, read-out: Blood uptake"}, "[4]": {"settings": "B6D2F1 (C57BL/6 × DBA/2F1 hybrids), mouse, muscle, read-out: Muscle uptake"}, "[5]": {"settings": "B6D2F1 (C57BL/6 × DBA/2F1 hybrids), mouse, skin, read-out: Skin uptake"}, "[6]": {"settings": "B6D2F1 (C57BL/6 × DBA/2F1 hybrids), mouse, tumor, read-out: Tumor uptake"}, "[7]": {"settings": "B6D2F1, mouse, bone, read-out: Bone uptake"}, "[8]": {"settings": "B6D2F1, mouse, heart, read-out: Heart uptake"}, "[9]": {"settings": "B6D2F1, mouse, kidney, read-out: Kidney uptake"}, "[10]": {"settings": "B6D2F1, mouse, liver, read-out: Liver uptake"}, "[11]": {"settings": "B6D2F1, mouse, lung, read-out: Lung uptake"}, "[12]": {"settings": "B6D2F1, mouse, pancreas, read-out: Pancreas uptake"}, "[13]": {"settings": "B6D2F1, mouse, small intestines, read-out: Small intestines uptake"}, "[14]": {"settings": "B6D2F1, mouse, spleen, read-out: Spleen uptake"}, "[15]": {"settings": "B6D2F1, mouse, stomach, read-out: Stomach uptake"}},
  "note": "Where two headings read alike, the source gives them in different places. Non-standard residues stand in square brackets, D forms with d. Residues, ends and D or L forms follow the SMILES beside them. *: point of attachment. DOTA = O=C(O)CN1CCN(CC(=O)O)CCN(CC(=O)*)CCN(CC(=O)O)CC1; Nle = CCCC[C@H](N)C(=O)O",
  "data": [
    {"molecule": "CCCC[C@H](NC(C)=O)C(=O)N[C@@H](CC(=O)O)C(=O)N[C@@H](Cc1c[nH]cn1)C(=O)N[C@H](Cc1ccccc1)C(=O)N[C@@H](CCCNC(=N)N)C(=O)N[C@@H](Cc1c[nH]c2ccccc12)C(=O)NCC(=O)N[C@@H](CCCCNC(=O)CN1CCN(CC(=O)O)CCN(CC(=O)O)CCN(CC(=O)O)CC1)C(=O)N[C@H](CC(=O)O)C(=O)N[C@H](CC(=O)O)C(=O)O", "note": "[DOTA-NAP-D-Asp-D-Asp, Ac-Nle-Asp-His-D-Phe-Arg-Trp-Gly-Lys(DOTA)-D-Asp-D-Asp-OH] (Ac-[Nle]DH[dF]RWGK(DOTA)[dD][dD]-OH)", "values": [
      {"measurement": "Reduction of MC1R affinity compared to DOTA-NAP-amide", "setting": "MC1R (HBL cells)", "result": "~ 10 fold"},
      {"measurement": "Reduction of MC1R affinity compared to DOTA-NAP-amide", "setting": "MC1R (B16-F1 cells)", "result": "~ 10 fold"},
      {"measurement": "tissue uptake at 4 h", "setting": "[1]; [3]", "result": 0.01, "unit": "%ID/g"},
      {"measurement": "tissue uptake at 24 h", "setting": "[1]; [3]", "result": 0.01, "unit": "%ID/g"},
      {"measurement": "tissue uptake at 48 h", "setting": "[1]; [3]", "result": 0.01, "unit": "%ID/g"},
      {"measurement": "tissue uptake at 48 h", "setting": "[1]; B6D2F1 (C57BL/6 × DBA/2F1 hybrids), mouse, bone, read-out: Bone uptake", "result": "0.07 ± 0.01", "unit": "%ID/g"},
      {"measurement": "tissue uptake at 4 h", "setting": "[1]; [4]", "result": 0.02, "unit": "%ID/g"},
      {"measurement": "tissue uptake at 24 h", "setting": "[1]; [4]", "result": 0.02, "unit": "%ID/g"},
      {"measurement": "tissue uptake at 48 h", "setting": "[1]; [4]", "result": 0.03, "unit": "%ID/g"},
      {"measurement": "tissue uptake at 4 h", "setting": "[1]; [5]", "result": "0.06 ± 0.01", "unit": "%ID/g"},
      {"measurement": "tissue uptake at 24 h", "setting": "[1]; [5]", "result": 0.06, "unit": "%ID/g"},
      {"measurement": "tissue uptake at 48 h", "setting": "[1]; [5]", "result": 0.04, "unit": "%ID/g"},
      {"measurement": "tissue uptake at 24 h", "setting": "[1]; [6]", "result": "0.63 ± 0.03", "unit": "%ID/g"},
      {"measurement": "tissue uptake at 48 h", "setting": "[1]; [6]", "result": "0.23 ± 0.02", "unit": "%ID/g"},
      {"measurement": "tissue uptake at 4 h", "setting": "[1]; [7]", "result": "0.07 ± 0.01", "unit": "%ID/g"},
      {"measurement": "tissue uptake at 24 h", "setting": "[1]; [7]", "result": "0.06 ± 0.01", "unit": "%ID/g"},
      {"measurement": "tissue uptake at 4 h", "setting": "[1]; [8]", "result": 0.03, "unit": "%ID/g"},
      {"measurement": "tissue uptake at 24 h", "setting": "[1]; [8]", "result": 0.03, "unit": "%ID/g"},
      {"measurement": "tissue uptake at 48 h", "setting": "[1]; [8]", "result": 0.03, "unit": "%ID/g"},
      {"measurement": "tissue uptake at 24 h", "setting": "[1]; [9]", "result": "4.09 ± 0.16", "unit": "%ID/g"},
      {"measurement": "tissue uptake at 48 h", "setting": "[1]; [9]", "result": "2.02 ± 0.08", "unit": "%ID/g"},
      {"measurement": "tissue uptake at 4 h", "setting": "[1]; [10]", "result": 0.1, "unit": "%ID/g"},
      {"measurement": "tissue uptake at 24 h", "setting": "[1]; [10]", "result": 0.09, "unit": "%ID/g"},
      {"measurement": "tissue uptake at 48 h", "setting": "[1]; [10]", "result": 0.07, "unit": "%ID/g"},
      {"measurement": "tissue uptake at 4 h", "setting": "[1]; [11]", "result": 0.06, "unit": "%ID/g"},
      {"measurement": "tissue uptake at 24 h", "setting": "[1]; [11]", "result": 0.04, "unit": "%ID/g"},
      {"measurement": "tissue uptake at 48 h", "setting": "[1]; [11]", "result": 0.03, "unit": "%ID/g"},
      {"measurement": "tissue uptake at 4 h", "setting": "[1]; [12]", "result": 0.03, "unit": "%ID/g"},
      {"measurement": "tissue uptake at 24 h", "setting": "[1]; [12]", "result": 0.02, "unit": "%ID/g"},
      {"measurement": "tissue uptake at 48 h", "setting": "[1]; [12]", "result": 0.03, "unit": "%ID/g"},
      {"measurement": "tissue uptake at 4 h", "setting": "[1]; [13]", "result": "0.05 ± 0.01", "unit": "%ID/g"},
      {"measurement": "tissue uptake at 24 h", "setting": "[1]; [13]", "result": "0.04 ± 0.01", "unit": "%ID/g"},
      {"measurement": "tissue uptake at 48 h", "setting": "[1]; [13]", "result": 0.03, "unit": "%ID/g"},
      {"measurement": "tissue uptake at 4 h", "setting": "[1]; [14]", "result": 0.07, "unit": "%ID/g"},
      {"measurement": "tissue uptake at 24 h", "setting": "[1]; [14]", "result": 0.07, "unit": "%ID/g"},
      {"measurement": "tissue uptake at 48 h", "setting": "[1]; [14]", "result": 0.07, "unit": "%ID/g"},
      {"measurement": "tissue uptake at 4 h", "setting": "[1]; [15]", "result": 0.11, "unit": "%ID/g"},
      {"measurement": "tissue uptake at 24 h", "setting": "[1]; [15]", "result": 0.03, "unit": "%ID/g"},
      {"measurement": "tissue uptake at 48 h", "setting": "[1]; [15]", "result": 0.02, "unit": "%ID/g"},
      {"measurement": "Kidney uptake/retention compared with reference (in words)", "setting": "[2]", "result": "markedly increased"},
      {"measurement": "Tumor uptake lower than that of reference", "setting": "[2]; melanoma tumors", "result": "~ 4 fold"},
      {"measurement": "Internalization profile (in words)", "setting": "B16-F1 cells", "result": "rapid internalization"}
    ]}
  ]
}
